Converted amounts (≈) assume the structure as drawn.
Legend:
[1] = test system: B. cereus ATCC 10702; experiment: Antimicrobial activity (MIC), agar multiple dilution method; assay type: cell-based; conditions: Bacillus cereus, ATCC10702, Muller Hinton agar, 37° C., 18 hrs.
Protocol: (§1) According to the standard method of Japanese Society of Chemotherapy, signamycin A and signamycin B were measured for antimicrobial spectrum against various microorganisms including drug-resistant bacteria (methicilline resistant bacteria and vancomycin resistant bacteria) on the Muller Hinton agar medium by the multiple dilution method.

[2] = test system: B. subtilis PCI 219; experiment: as above; assay type: cell-based; conditions: Bacillus subtilis, PCI219, Muller Hinton agar, 37° C., 18 hrs.
Protocol: as §1

[3] = test system: Bacillus subtilis NRRL B-558; experiment: as above; assay type: cell-based; conditions: NRRLB558, Muller Hinton agar, 37° C., 18 hrs.
Protocol: as §1

[4] = test system: Corynebacterium bovis 1810; experiment: as above; assay type: cell-based; conditions: Muller Hinton agar, 37° C., 18 hrs.
Protocol: as §1

[5] = test system: E. faecalis NCTC 12201 (VRE, vanA); experiment: as above; assay type: cell-based; conditions: Enterococcus faecalis, 18 h
Protocol: as §1

[6] = test system: E. faecalis NCTC 12203 (VRE, vanA); experiment: as above; assay type: cell-based; conditions: Enterococcus faecalis, 18 h
Protocol: as §1

[7] = test system: E. faecium JCM 5804; experiment: as above; assay type: cell-based; conditions: Enterococcus faecium, JCM5804, Muller Hinton agar, 37° C., 18 hrs.
Protocol: as §1

[8] = test system: E. faecium NCTC 12202 (VRE, vanA); experiment: as above; assay type: cell-based; conditions: Enterococcus faecium, 18 h
Protocol: as §1

[9] = test system: E. faecium NTCTC 12204 (VRE, vanA); experiment: as above; assay type: cell-based; conditions: Enterococcus faecium, 18 h
Protocol: as §1

[10] = test system: Enterococcus faecalis JCM 5803; experiment: as above; assay type: cell-based; conditions: JCM5803, Muller Hinton agar, 37° C., 18 hrs.
Protocol: as §1

[11] = test system: Escherichia coli NIHJ; experiment: as above; assay type: cell-based; conditions: Muller Hinton agar, 37° C., 18 hrs.
Protocol: as §1

[12] = test system: M. luteus IFO 3333; experiment: as above; assay type: cell-based; conditions: Micrococcus luteus, IFO3333, Muller Hinton agar, 37° C., 18 hrs.
Protocol: as §1

[13] = test system: M. luteus PCI 1001; experiment: as above; assay type: cell-based; conditions: Micrococcus luteus, PCI1001, Muller Hinton agar, 37° C., 18 hrs.
Protocol: as §1

[14] = test system: Micrococcus luteus FDA 16; experiment: as above; assay type: cell-based; conditions: FDA16, Muller Hinton agar, 37° C., 18 hrs.
Protocol: as §1

[15] = test system: Mycobacterium smegmatis ATCC607; experiment: as above; assay type: cell-based; conditions: Mycolicibacterium smegmatis, Muller Hinton agar, 37° C. 42 hrs.
Protocol: as §1

[16] = test system: Pseudomonasu aeruginosa A3; experiment: as above; assay type: cell-based; conditions: 18 h
Protocol: as §1

[17] = test system: S. aureus MRSA No. 17 (MRSA); experiment: as above; assay type: cell-based; conditions: Staphylococcus aureus, 18 h
Protocol: as §1

[18] = test system: S. aureus MRSA No. 5 (MRSA); experiment: as above; assay type: cell-based; conditions: Staphylococcus aureus, 18 h
Protocol: as §1

[19] = test system: S. aureus MS16526 (MRSA); experiment: as above; assay type: cell-based; conditions: Staphylococcus aureus, 18 h
Protocol: as §1

[20] = test system: S. aureus MS9610 (MDR); experiment: as above; assay type: cell-based; conditions: Staphylococcus aureus, 18 h
Protocol: as §1

[21] = test system: S. aureus Smith; experiment: as above; assay type: cell-based; conditions: Staphylococcus aureus, Muller Hinton agar, 37° C., 18 hrs.
Protocol: as §1

[22] = test system: S. aureus TY-04282 (MRSA); experiment: as above; assay type: cell-based; conditions: Staphylococcus aureus, 18 h
Protocol: as §1

[23] = test system: Staphylococcus aureus FDA 209P; experiment: as above; assay type: cell-based; conditions: FDA209P, Muller Hinton agar, 37° C., 18 hrs.
Protocol: as §1

[24] = biological target: T1, YycG of Bacillus subtilis 168 strain (YycG-204-611) (Bacillus subtilis, UniProt Q45614); experiment: YycG histidine kinase activity inhibitory test; assay type: biochemical; conditions: YycG-204-611, [γ-32P]ATP, 30° C.
T1 construct: a region containing the 204th amino acid to the 611th amino acid from the N-terminus; made in house; host or cells: Escherichia coli
T1 sequence (Q45614 204-611): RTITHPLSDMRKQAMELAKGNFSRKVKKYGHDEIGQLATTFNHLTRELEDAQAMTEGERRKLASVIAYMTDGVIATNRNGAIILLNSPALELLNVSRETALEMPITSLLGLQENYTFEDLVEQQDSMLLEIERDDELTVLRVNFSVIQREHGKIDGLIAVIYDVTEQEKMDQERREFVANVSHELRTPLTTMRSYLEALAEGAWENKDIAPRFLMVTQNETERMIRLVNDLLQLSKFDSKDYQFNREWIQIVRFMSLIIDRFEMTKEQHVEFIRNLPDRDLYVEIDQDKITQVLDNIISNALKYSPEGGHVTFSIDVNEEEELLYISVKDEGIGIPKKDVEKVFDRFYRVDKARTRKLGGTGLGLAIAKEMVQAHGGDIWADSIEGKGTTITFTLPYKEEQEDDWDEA
Protocol: Signamycin A and signamycin B were measured for enzyme inhibitory activity against YycG of Bacillus subtilis 168 strain (B. subtilis 168).
(§2) The histidine kinase activity was measured according to the method reported in Biosci. Biotechnol. Biochem., 64, 919-923, 2000.
A DNA fragment encoding a region containing only the kinase activity domain of […] (i.e., a region containing the 204th amino acid to the 611th amino acid from the N-terminus) was prepared through PCR from the chromosomal DNA of the Bacillus subtilis 168 strain, and was cloned into the expression vector pET21a (+). The thus-obtained plasmid pET-yycGtru was used to transform Escherichia coli cells. The culture liquid of the thus-transformed strain was treated to purify a protein expressing only the histidine kinase activity domain of YycG (YycG-204-611).
The reaction solution having the following formulation was used for measuring histidine kinase activity: 0.5 μM YycG-204-611, 50 mM Tris-HCl (pH 8.5), 100 mM KCl, 100 mM NH4Cl and 5 mM MgCl2. A 2.5 μM ATP-10 μCi [γ-^32P]ATP mixture was added to the reaction solution to initiate the reaction so that the total amount was adjusted to 10 μL. The resultant mixture was incubated at 30° C. for 10 min. After termination of the reaction, SDS-polyacrylamide gel electrophoresis was performed. […]

[25] = biological target: VicK of caries bacteria (VicK-31-450) (Streptococcus mutans, UniProt Q8DT64); experiment: VicK histidine kinase activity inhibitory test; assay type: biochemical; conditions: VicK-31-450, [32P]ATP, 25° C.
VicK of caries bacteria (VicK-31-450), sequence (Q8DT64 entry or part of it): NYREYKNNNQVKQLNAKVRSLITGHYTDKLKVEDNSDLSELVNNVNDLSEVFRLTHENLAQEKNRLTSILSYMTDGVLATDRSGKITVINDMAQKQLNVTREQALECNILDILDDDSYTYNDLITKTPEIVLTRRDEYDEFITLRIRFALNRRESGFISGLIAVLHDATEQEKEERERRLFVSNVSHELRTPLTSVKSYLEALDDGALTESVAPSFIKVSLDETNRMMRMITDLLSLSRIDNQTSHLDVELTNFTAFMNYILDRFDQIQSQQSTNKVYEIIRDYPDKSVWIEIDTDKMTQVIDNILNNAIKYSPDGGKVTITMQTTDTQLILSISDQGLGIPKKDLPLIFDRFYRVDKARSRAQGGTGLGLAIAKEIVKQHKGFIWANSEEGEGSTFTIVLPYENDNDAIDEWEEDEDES
Protocol: Signamycin A and signamycin B were measured for enzyme inhibitory activity against VicK of caries bacteria (Streptococcus mutans).
The histidine kinase activity was measured by a modified method of the method reported in Biosci. Biotechnol. Biochem., 64, 919-923, 2000.
A DNA fragment encoding a region containing only the kinase activity domain of VicK (i.e., a region containing the 31th amino acid to the 450th amino acid from the N-terminus) was prepared through PCR from the chromosomal DNA of the caries bacteria, and was cloned into the expression vector pET21a (+). The thus-obtained plasmid pET-SMvicK31-450 was used to transform Escherichia coli cells. The culture liquid of the thus-transformed strain was treated to purify a protein expressing only the histidine kinase activity domain of VicK (VicK-31-450).
The reaction solution having the following formulation was used for measuring histidine kinase activity: […] VicK-31-450, 50 mM Tris-HCl (pH 7.5), 50 mM KCl and 10 mM MgCl2. Signamycin A or signamycin B (1 μL) was added to the reaction solution (7 μl), followed by incubating at 25° C. for 5 min. Subsequently, 2 μL of 12.5 µM ATP containing [^32P]ATP was added to the reaction mixture (final concentration: […]) to initiate the reaction, followed by incubating at 25° C. for 20 min. […]

[26] = biological target: PehS of soft-rot bacteria MAFF301393 strain (PehS-209-484) (Pectobacterium carotovorum subsp. carotovorum, UniProt Q9ZIN8); experiment: PehS histidine kinase activity inhibitory test; assay type: biochemical, Erwinia carotovora subsp. carotovora MAFF301393; conditions: for inhibitory activity against PehS (in words): summary of Table 2
PehS of soft-rot bacteria MAFF301393 strain (PehS-209-484), sequence (Q9ZIN8 entry or part of it): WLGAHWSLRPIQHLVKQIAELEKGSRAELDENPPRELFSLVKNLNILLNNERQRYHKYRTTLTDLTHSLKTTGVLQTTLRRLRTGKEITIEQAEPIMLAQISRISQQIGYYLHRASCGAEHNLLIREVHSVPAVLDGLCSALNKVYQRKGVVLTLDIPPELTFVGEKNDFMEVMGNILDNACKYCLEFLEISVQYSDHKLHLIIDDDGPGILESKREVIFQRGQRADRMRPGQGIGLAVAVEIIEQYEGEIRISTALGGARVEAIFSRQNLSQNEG
Protocol: Signamycin A and signamycin B were measured for enzyme inhibitory activity against PehS of soft-rot bacteria MAFF301393 strain (Erwinia carotovora subsp. carotovora MAFF301393).
as §2
A DNA fragment encoding a region containing only the kinase activity domain of […] (i.e., a region containing the 209th amino acid to the 484th amino acid from the N-terminus) was prepared through PCR from the chromosomal DNA of the soft-rot bacteria MAFF301393 strain, and was cloned into the expression vector pET21a (+). The thus-obtained plasmid pET-pehScM2-2 was used to transform Escherichia coli cells. The culture liquid of the thus-transformed strain was treated to purify a protein expressing only the histidine kinase activity domain of PehS (PehS-209-484).
The reaction solution having the following formulation was used for measuring histidine kinase activity: 4 μM PehS-209-484, 50 mM Tris-HCl (pH 8.5), 100 mM KCl, 100 mM NH4Cl and 5 mM MgCl2. A 2.5 μM ATP-10 μCi [γ-^32P] ATP mixture was added to the reaction solution to initiate the reaction so that the total amount was adjusted to 10 μL. The resultant mixture was incubated at 30° C. for 20 min. After termination of the reaction, SDS-polyacrylamide gel electrophoresis was performed. For measuring inhibitory activity, signamycin A or signamycin B was added to the reaction solution before the addition of the ATP mixture so as to have a predetermined concentration, followed by incubating at 30° C. for 5 min, to thereby determine the 50% inhibitory concentration (IC50) with respect to PehS of soft-rot bacteria.

[27] = test system: Staphylococcus aureus (S. aureus); experiment: Antimicrobial activity, summary in words for the species; assay type: cell-based; conditions: summary of Table 1
Protocol: as §1

[28] = test system: Enterococcus (E. faecalis and E. faecium); experiment: Antimicrobial activity, summary in words for the genus; assay type: cell-based; conditions: summary of Table 1
Protocol: as §1

Row | SMILES | MIC [1] [µg/mL] | MIC [2] [µg/mL] | MIC [3] [µg/mL] | MIC [4] [µg/mL] | MIC [5] [µg/mL] | MIC [6] [µg/mL] | MIC [7] [µg/mL] | MIC [8] [µg/mL] | MIC [9] [µg/mL] | MIC [10] [µg/mL] | MIC [11] [µg/mL] | MIC [12] [µg/mL] | MIC [13] [µg/mL] | MIC [14] [µg/mL] | MIC [15] [µg/mL] | MIC [16] [µg/mL] | MIC [17] [µg/mL] | MIC [18] [µg/mL] | MIC [19] [µg/mL] | MIC [20] [µg/mL] | also measured
1 | CCC1C(C)=CC2CC(C)C(O)C(CC)C2C1/C(O)=C1/C(=O)NC(C)C1=O (stereo not drawn) [Signamycin A, signamycin A] | 4 (≈ 10.7 µM) | 4 (≈ 10.7 µM) | 4 (≈ 10.7 µM) | 8 (≈ 21.3 µM) | 16 (≈ 42.6 µM) | 8 (≈ 21.3 µM) | 8 (≈ 21.3 µM) | 16 (≈ 42.6 µM) | 8 (≈ 21.3 µM) | 16 (≈ 42.6 µM) | 32 (≈ 85.2 µM) | 8 (≈ 21.3 µM) | 8 (≈ 21.3 µM) | 8 (≈ 21.3 µM) | 32 (≈ 85.2 µM) | > 100 | 8 (≈ 21.3 µM) | 8 (≈ 21.3 µM) | 8 (≈ 21.3 µM) | 8 (≈ 21.3 µM) | MIC [21]: 8 µg/mL (≈ 21.3 µM); MIC [22]: 8 µg/mL (≈ 21.3 µM); MIC [23]: 4 µg/mL (≈ 10.7 µM); IC50 [24]: 138 µM; IC50 [25]: 239 µM; IC50 [26]: 33.6 µM; inhibitory activity against PehS (in words) [26]: strong inhibitory activity; antimicrobial activity against Staphylococcus aureus (in words) [27]: high antimicrobial activity
2 | CCCC1C(C)=CC2CC(C)C(O)C(CC)C2C1/C(O)=C1/C(=O)NC(C)C1=O (stereo not drawn) [Signamycin B, signamycin B] | 2 (≈ 5.13 µM) | 4 (≈ 10.3 µM) | 4 (≈ 10.3 µM) | 8 (≈ 20.5 µM) | 8 (≈ 20.5 µM) | 8 (≈ 20.5 µM) | 8 (≈ 20.5 µM) | 8 (≈ 20.5 µM) | 8 (≈ 20.5 µM) | 8 (≈ 20.5 µM) | 64 (≈ 164 µM) | 4 (≈ 10.3 µM) | 4 (≈ 10.3 µM) | 4 (≈ 10.3 µM) | 64 (≈ 164 µM) | > 100 | 4 (≈ 10.3 µM) | 4 (≈ 10.3 µM) | 4 (≈ 10.3 µM) | 4 (≈ 10.3 µM) | MIC [21]: 4 µg/mL (≈ 10.3 µM); MIC [22]: 4 µg/mL (≈ 10.3 µM); MIC [23]: 4 µg/mL (≈ 10.3 µM); IC50 [24]: 43 µM; IC50 [25]: 62.2 µM; IC50 [26]: 15.7 µM; inhibitory activity against PehS (in words) [26]: strong inhibitory activity; antimicrobial activity against Staphylococcus aureus (in words) [27]: high antimicrobial activity; antimicrobial activity against Enterococcus (in words) [28]: high antimicrobial activity

From patent US8058455B2, “Compound signamycin, method for production thereof, and use thereof” (priority 2008, dated 2011)
